Experimental data: US20080194585A1, “Fungicidal Pyrazine Derivatives” (priority 2005, published 2008)
Marks after values point to notes of the source that are not given here.

What was measured:
[1] = system: Rhizoctonia oryzae; assay: Test G: turf brown patch, preventive spray on creeping bent grass seedlings
Procedure: (the causal agent of turf brown patch) and incubated in a saturated atmosphere at 27° C. for 24 h, and then moved to a growth chamber at 27° C. for 5 days, after which disease ratings were made.

[2] = system: Erysiphe graminis f. sp. tritici; assay: Test L: wheat powdery mildew, preventive spray on wheat seedlings
[3] = system: Pythium aphanidermatum; assay: Test A: bluegrass pythium blight, preventive spray on bluegrass seedlings; settings: 200 ppm
[4] = system: Septoria tritici; assay: Test J: wheat leaf blotch, preventive spray on wheat seedlings; assay type: in vivo
From the text: A dash (-) indicates no test results.

[5] = system: Botrytis cinerea; assay: Test E: tomato botrytis, preventive spray on tomato seedlings
[6] = system: fusarium graminearium; assay: Test I: wheat head scab, preventive spray on wheat seedlings; settings: 200 ppm
Procedure: (the causal agent of wheat head scab) and incubated in a saturated atmosphere at 20° C. for 72 h, and then moved to a growth chamber at 22° C. for 5 days, after which disease ratings were made.

[7] = system: Phytophthora infestans; assay: whole plant or invertebrate; assay type: in vivo; settings: 200 ppm
[8] = system: Septoria nodorum; assay: Test H: wheat glum blotch, preventive spray on wheat seedlings
Procedure: (the causal agent of wheat glum blotch) and incubated in a saturated atmosphere at 20° C. for 48 h, and then moved to a growth chamber at 22° C. for 5 days, after which disease ratings were made.

[9] = system: Sclerotinia sclerotiorum; assay: Test C: cucumber white mold, preventive spray on cucumber seedlings
[10] = system: Plasmopara viticola; assay: Test D: grape downy mildew, spray after inoculation of grape seedlings; assay type: in vivo; settings: 200 ppm
From the text: Upon removal, disease ratings were made. […] A dash (-) indicates no test results.

[11] = system: Colletotrichum orbiculare; assay: Test B: cucumber Colletotrichum anthracnose, preventive spray on cucumber seedlings
[12] = system: Puccinia recondita f. sp. tritici; assay: Test K: wheat leaf rust, preventive spray on wheat seedlings

SMILES | Test G disease control rating ([1]; 200 ppm) [%] | Test L disease control rating ([2]; 200 ppm) [%] | Test A disease control rating [3] [%] | Test J disease control rating ([4]; 200 ppm) [%] | Test E disease control rating ([5]; 200 ppm) [%] | Test I disease control rating [6] [%] | Test F disease control rating [7] [%] | Test H disease control rating ([8]; 200 ppm) [%] | Test C disease control rating ([9]; 40 ppm (*)) | Test D disease control rating [10] [%] | Test B disease control rating ([11]; 200 ppm) [%] | Test K disease control rating ([12]; 200 ppm) [%] | Test G disease control rating ([1]; 40 ppm (*)) | Test L disease control rating ([2]; 40 ppm (*)) | Test J disease control rating ([4]; 40 ppm (*)) | Test E disease control rating ([5]; 40 ppm (*)) | Test H disease control rating ([8]; 40 ppm (*)) | Test C disease control rating ([9]; 200 ppm) [%] | Test B disease control rating ([11]; 40 ppm (*)) | Test K disease control rating ([12]; 40 ppm (*))
Cc1ccc(-c2c(Cl)nc(-n3cccn3)c(=O)n2CC(C)C)c(C)c1 [compound 80] | 47 | 94 | 0 | 100 | 100 | 0 | 0 | 100 | 0* % | 0 | 99 | 100 |  |  |  |  |  |  |  | 
CCC(C)Cn1c(-c2c(F)cccc2F)c(Cl)nc(-n2ccc(C#N)n2)c1=O (stereo not drawn) [compound 81] |  |  | 0 |  |  | 0 | 0 |  |  | 0 |  |  | 31* % | 0* % | 52* % | 93* % | 0* % | 0 | 0* % | 68* %
CCC(C)Cn1c(-c2c(F)cccc2F)c(Cl)nc(-n2cccc2)c1=O (stereo not drawn) [compound 82] |  |  | 0 |  |  | 0 | 0 |  |  | 0 |  |  | 0* % | 0* % | 5* % | 0* % | 73* % | 0 | 0* % | 68* %
COc1cc(OC)c(-c2c(Cl)nc(-n3cccn3)c(=O)n2CC(C)C)c(OC)c1 [compound 86] | 0 | 0 | 0 | 0 | 0 | 23 | 0 | 0 |  | 0 | 0 | 0 |  |  |  |  |  | 4 |  | 
CC(C)Cn1c(-c2c(F)cccc2C(F)(F)F)c(Cl)nc(-n2cccn2)c1=O [compound 87] | 99 | 100 | 0 | 74 | 100 | 18 | 0 | 100 |  | 0 | 100 | 100 |  |  |  |  |  | 95 |  | 
CC(C)Cn1c(-c2ccc3c(c2)OCO3)c(Cl)nc(-n2cccn2)c1=O [compound 88] | 16 | 0 | 0 | 100 | 100 | 0 | 24 | 99 |  | 0 | 52 | 97 |  |  |  |  |  | 99 |  | 
O=c1c(-n2cccn2)nc(Cl)c(-c2c(F)cccc2F)n1CC1CCCO1 (stereo not drawn) [compound 91] |  |  | 0 |  |  | 0 | 0 |  |  | 0 |  |  | 0* % | 0* % | 93* % | 92* % | 33* % | 0 | 0* % | 0* %
O=c1c(-n2cncn2)nc(Cl)c(-c2c(F)cccc2F)n1CC1CCCO1 (stereo not drawn) [compound 92] |  |  | 0 |  |  | 0 | 0 |  |  | 0 |  |  | 0* % | 0* % | 7* % | 0* % | 0* % | 0 | 0* % | 0* %
COCC(C)n1c(-c2c(F)cccc2F)c(Cl)nc(-n2cccn2)c1=O (stereo not drawn) [compound 93] |  |  | 0 |  |  | 0 | 60 |  |  | 0 |  |  | 70* % | 97* % | 83* % | 79* % | 96* % | 0 | 0* % | 98* %
COCC(C)n1c(-c2c(F)cccc2F)c(Cl)nc(-n2cncn2)c1=O (stereo not drawn) [compound 94] |  |  | 0 |  |  | 0 | 0 |  |  | 0 |  |  | 0* % | 0* % | 14* % | 0* % | 0* % | 0 | 0* % | 0* %
COCCn1c(-c2c(F)cccc2F)c(Cl)nc(-n2cncn2)c1=O [compound 96] |  |  | 0 |  |  | 0 | 0 |  |  | 0 |  |  | 0* % | 0* % | 0* % | 0* % | 0* % | 0 | 0* % | 0* %
CSCCn1c(-c2c(F)cccc2F)c(Cl)nc(-n2cccn2)c1=O [compound 97] |  |  | 0 |  |  | 0 | 0 |  |  | 64 |  |  | 0* % | 0* % | 24* % | 100* % | 0* % | 0 | 0* % | 0* %
CSCCn1c(-c2c(F)cccc2F)c(Cl)nc(-n2cncn2)c1=O [compound 98] |  |  | 0 |  |  | 0 | 0 |  |  | 0 |  |  | 0* % | 0* % | 26* % | 0* % | 0* % | 0 | 0* % | 0* %
